In one data set the test system is COS-7 chloride channel. The experiment in a line: Selectivity patch clamp, native chloride channels in COS-7 cells. The class given is cell-based, African green monkey. The note with it: native chloride channel of COS-7 cells. The procedure:
Electrophysiological experiments were carried out in the whole-cell configuration of the patch-clamp technique using an EPC-9 amplifier (HEKA Elektronik, Lambrecht Germany) interfaced to a computer running acquisition and analysis software (Pulse and Pulsfit; HEKA Elektronik). Pipettes were pulled from soft glass capillaries, coated with Sylgard (Dow-Corning, Midland, Mich.), and fire polished to resistances of 2.0–4.5 MΩ measured in the bath. COS-7 cells were trypsinized and plated on glass coverslips 3 h before measurement. […] To prevent activation of the native chloride channels in COS-7 cells an aspartate Ringer solution was used as an external solution (160 mM Na^+ aspartate, 4.5 mM KCl, 2 mM CaCl2, 1 mM MgCl2, 5 mM HEPES, adjusted to pH 7.4 with NaOH, with an osmolarity of 290–310 mosM). 200 ms voltage ramps from −120 mV to 40 mV every 10 s were used. The holding potential in all experiments was −80 mV. Series resistance compensation was not employed. The reduction of slope conductance at −80 mV was used to determine the Kd-value by fitting the values to the Hill equation with a Hill coefficient of unity.
Recordings from the Jurkat SKCa channel were made in K^+ aspartate Ringer (Na^+ was replaced by K^+) with the same internal pipette solution. […]
(The patch-clamp technique gives a direct electrical read-out from membranes.)

A further data set concerns the target CYP3A4 (Homo sapiens, UniProt P08684). The experiment in a line: in vitro. Particulars: human. The procedure:
The test substances shown in Table 8 were evaluated for their inhibitory effect on the catalytic activity of human cytochrome P450 enzyme. Cytochrome P450 3A4 (CYP3A4) is involved in many drug-drug interactions and in many other pathways in the body including the catabolism of steroids and xenobiotics. Inhibition of this enzyme was measured in 96 well plates with 7-benzyloxy-4-trifluoro-methylcoumarin (BFC) as the substrate and cDNA-derived enzymes in microsomes prepared from baculovirus-infected insect cells.
The inhibition study consisted of the determination of inhibition by the test substance on CYP3A4 catalytic activity. […] The compounds were prepared as 10 mM stock solutions in acetonitrile. Metabolism of the model substrate was assayed by the production of 7-hydroxy-4-trifluoromethylcoumarin metabolite. The metabolite was detected by fluorescence.
Table 10 below provides a list of the name of enzymes examined, the catalog number of the microsomes used as a source of the enzyme, the concentration of the model substrate used, the amount of enzyme used, the final buffer concentration, and the positive control compound.
Assays were conducted in 96 well microtiter plates. The BFC substrate was initially prepared in acetonitrile. […] Six wells were used for one test. […] For the positive controls, 12 wells in a row were used for one test. The positive control inhibitor/enzyme combination was examined in duplicate rows. Wells 1 to 8 contained serial 1:3 dilutions of the inhibitors. The highest inhibitor concentration were as described in the table above. Wells 9 and 10 contained no inhibitor and wells 11 and 12 were blanks for background fluorescence (stop solution added before the enzyme).
After buffer, cofactors and inhibitor addition, the plates were pre-warmed to 37° C. Incubations were initiated by the addition of pre-warmed enzyme and substrate. The final cofactor concentrations were 1.3 mM NADP, 3.3 mM glucose-6-phosphate and 0.4 U/ml glucose-6-phosphate dehydrogenase. The final incubation volume was 0.2 ml. Incubations were carried out for 30 minutes [CYP3A4 (BFC)] and stopped by the addition of 0.075 ml of 80% acetonitrile-20% 0.5M Tris. Fluorescence per well was measured using a BMG FLUOstar fluorescence plate reader. The BFC metabolite 7-hydroxy-4-trifluoromethyl-coumarin was measured using an excitation wavelength of 410 nm and emission wavelength of 538 nm.

Data set [1] in a line: Hydrolytic stability by HPLC. The note with it: pH 5.0, 37° C. The procedure: A Waters 590 liquid chromatograph with a Waters 746 integrator and a Waters 486 UVN is detector, and a 25 cm Lichrospher RP18 column (5-μM particle size) was used. The mobile phase consisted of K2HPO4 25 mM, KH2PO4 30 mM, methanol at 262:13:725. The chromatographic separation was performed at 20° C. with a flow rate of 1.0 ml/min, the absorbance of the elluent was monitored at 210 nm.
Hydrolysis profiles (10 μM compound with 20% acetonitrile) were carried out in Soerensen phosphate buffer (pH 7.4 and pH 5.0) in a total volume of 10 ml. 100 μl samples were collected 0, 1, 2, 3, 4, 5, 24, 48 and 72 hours after incubation, with shaking, in a waterbath at 37° C. and manually injected into the HPLC over Rheodyne 7125 system. For profiles at pH 1.0 artificial stomach fluid (DAB 9), containing 2 g NaCl, 3,2 g pepsin and 80 ml 1 M HCL in 1.0 L of water was used. After 0, 1 and 2 hours 400 μl of sample were collected and extracted three times with 500 μl of ethyl ether by vortexing. The combined extracts were than evaporated to dryness by passing nitrogen through the solution. The residue was than dissolved in 400 μl of mobile phase of which […] were injected in the HPLC.

Sequence of CYP3A4 (P08684 whole entry): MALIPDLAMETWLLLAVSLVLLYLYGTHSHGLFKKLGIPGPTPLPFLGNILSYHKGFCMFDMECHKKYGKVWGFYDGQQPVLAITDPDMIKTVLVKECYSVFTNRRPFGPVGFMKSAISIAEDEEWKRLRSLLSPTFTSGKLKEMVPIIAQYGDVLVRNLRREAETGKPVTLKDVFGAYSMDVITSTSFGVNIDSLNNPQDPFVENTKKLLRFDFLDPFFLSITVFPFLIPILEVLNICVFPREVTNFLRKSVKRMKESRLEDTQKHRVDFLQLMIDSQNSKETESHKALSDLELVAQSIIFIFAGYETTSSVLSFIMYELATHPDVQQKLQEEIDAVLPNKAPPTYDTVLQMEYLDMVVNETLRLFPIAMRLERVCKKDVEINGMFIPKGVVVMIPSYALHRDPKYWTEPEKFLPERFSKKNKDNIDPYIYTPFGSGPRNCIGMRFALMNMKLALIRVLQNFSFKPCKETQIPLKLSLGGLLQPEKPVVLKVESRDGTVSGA

On to `Clc1ccccc1C(c1ccccc1)(c1ccccc1)n1ccnc1` [Clotrimazole, reference compound], for which, in the data set on COS-7 chloride channel, the “Block of COS-7 (Cl)” value is listed as “no effect at 10 μM (n =”. Also, on CYP3A4, the inhibition at 30 min, 0.1 μM amounted to 99%. Besides, the figures for the “hydrolysis: % T3 formed” value in data set [1] (after 48 h) and in data set [1] (after 72 h) were 22% and 35%, respectively.

The term inhibition denotes the change of the read-out against control, counted positive when it falls.

Values taken from US7235577B1 (priority 2000, dated 2007).
